{"source": "patent US8904703B2", "about": "“Herbicide method and apparatus” (priority 2011, dated 2014)", "key": {"surrounding plant life": {"test_system": "surrounding plant life", "assay": "Field trials: effect of the Kudzu vine treatment on surrounding plant life", "type": "in vivo", "conditions": "observed through growth of new grass and new leaf growth", "text": "(§1) In operation, the chuck on a battery powered drill (not shown in the drawing) connects the drill to the drill shank 23. The tube 10 is placed near a Kudzu vine stem as that stem protrudes above the earth with the longitudinal tube axis 17 of the tube 10 generally perpendicular to the surface of earth 35 to press drill bit 11 against the soil. Preferably a 1.6 cm diameter black oxide coated drill bit is suitable for this purpose.\n(§2) The drill is energized and the torque applied by the drill turns the tube 10 and the drill bit 11, causing the drill bit 11 and the balance of the tube 10 to bore into the earth. The drilling is continued until all of the perforations in the two perforation sets 12A and 22A are well below the surface of the earth, whereupon the drill is deactivated and disconnected from the shank 23.\n(§3) A first of the two helium canisters 33 is then coupled through the flexible conduit 32 and the gas adapter 31 to the valve 28. Valve handle 34 is shifted to a valve open position and helium gas flows from the canister 33, through the valve 28 and into the hollow center 24 (FIG. 2) of the tube 10.\nOnce in the tube 10, under the gas pressure supplied by the helium canister 33, the helium gas disperses into soil 36 surrounding the tube 10 through the perforations in the sets 12A and 22A and migrates in the soil 36 to Kudzu vine root 37. […]"}, "[1]": {"test_system": "Kudzu vines (pueraria lobata)", "assay": "Field trials of helium gas applied to Kudzu vine root systems through a perforated tube", "type": "in vivo", "text": "With respect to the helium canister 33, two canisters, each having 0.25 cubic meters of helium gas under a pressure (when full) of at least 260 pounds per square inch (PSI), for a total of 0.5 cubic meters at standard atmospheric pressure and temperature provide a suitable herbicidal effect when the canister 33 (only one of which canisters is shown in the drawing) are applied in sequence in accordance with the invention. […] Naturally, for Kudzu eradication over larger areas, large helium tanks also have been used with great success.\nas §1, §2, §3\nOnce in the tube 10, under the gas pressure supplied by the helium canister 33, the helium gas disperses into soil 36 surrounding the tube 10 through the perforations in the sets 12A and 22A and migrates in the soil 36 to Kudzu vine root 37. Upon depletion of the helium in the canister 33, the valve handle 34 is shifted to close the valve 28. […]"}}}
{"smiles": "[He]", "note": "[helium]", "values": [{"measurement": "Effect of Kudzu vine treatment on surrounding plant life", "setting": "surrounding plant life", "result": "surprisingly beneficial"}, {"measurement": "Kudzu vine herbicidal result", "setting": "[1]; Balloon Time helium canisters, helium purity 94% to 96%, two canisters of 0.25 cubic meters applied in sequence", "result": "produced the desired Kudzu vine herbicidal result"}, {"measurement": "Kudzu destroyed (estimated)", "setting": "[1]; four weeks after exposure to helium, third test site", "result": "~95", "unit": "%"}, {"measurement": "Kudzu vines destroyed", "setting": "[1]; four weeks after exposure to helium, two test sites, about 0.5 cubic meters helium into soil near roots", "result": "all of the Kudzu vines so treated were destroyed"}]}
